Data reported in patent US20250171423A1, “PHARMACEUTICAL COMPOUNDS FOR THE TREATMENT OF COMPLEMENT MEDIATED DISORDERS” (Achillion Pharmaceuticals, Inc., priority 2020, published 2025).
Where two headings read alike, the source gives them in different places.

What was measured:
[1] = rcm bond, DCM
[2] = molecular target: T1, Human complement C1s enzyme (Homo sapiens, UniProt P09871); assay: Human C1s Enzyme Assay; assay type: biochemical; conditions: human C1s 1.16 nM, 5 min preincubation, substrate Z-L-Lys-SBzl 100 μM, A405; read-out: C1s Protease Activity
T1 construct: purified from human serum, Complement Technology, Inc; purchased Complement Technology, Inc; host or cells: human serum
T1 sequence (P09871 438-688 limits assumed): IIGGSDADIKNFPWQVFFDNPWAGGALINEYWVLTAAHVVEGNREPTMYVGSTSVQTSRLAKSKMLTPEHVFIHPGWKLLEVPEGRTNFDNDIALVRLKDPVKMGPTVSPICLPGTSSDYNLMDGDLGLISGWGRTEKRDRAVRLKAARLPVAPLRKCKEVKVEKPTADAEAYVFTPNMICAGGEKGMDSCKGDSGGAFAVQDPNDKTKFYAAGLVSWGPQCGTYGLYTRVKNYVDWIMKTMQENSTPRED
T1 sequence (P09871 16-437 partner limits assumed): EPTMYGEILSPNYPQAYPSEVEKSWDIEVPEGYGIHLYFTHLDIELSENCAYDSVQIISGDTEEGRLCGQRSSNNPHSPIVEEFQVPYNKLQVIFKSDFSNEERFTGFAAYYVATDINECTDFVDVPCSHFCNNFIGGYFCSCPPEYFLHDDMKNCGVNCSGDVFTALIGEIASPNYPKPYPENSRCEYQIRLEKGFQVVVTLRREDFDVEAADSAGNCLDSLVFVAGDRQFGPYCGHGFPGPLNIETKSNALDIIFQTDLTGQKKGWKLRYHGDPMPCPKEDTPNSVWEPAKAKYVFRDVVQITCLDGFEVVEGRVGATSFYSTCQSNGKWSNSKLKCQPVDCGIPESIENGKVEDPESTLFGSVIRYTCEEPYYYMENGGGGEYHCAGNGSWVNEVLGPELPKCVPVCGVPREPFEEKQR
Summary of the method: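 IC50 values were fitted by nonlinear regression to rates measured as A405 every 30 s for 30 min. The thioester substrate Z-L-Lys-SBzl and Ellman's reagent were each at 100 μM. Serum-derived C1s at 1.16 nM final had 5 min of room-temperature preincubation with compound (pH 7.5 Tris buffer, 1 M NaCl).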

| Structure (SMILES) | IC50 [2] | also measured |
| --- | --- | --- |
| O=C1NCC(=O)N2[C@H]3C[C@@]3(COCCCC=CCCCCC/C=C\c3cc1ccc3Oc1ccc(F)cc1)C[C@H]2C(=O)OCc1ccccc1 | – | ring closure, yield of all isomers ([1]; from C=CCCCCC/C=C\c1cc(C(=O)NCC(=O)N2[C@H]3C[C@@]3(COCCCC=C)C[C@H]2C(=O)OCc2ccccc2)ccc1Oc1ccc(F)cc1, Grubbs 1st generation catalyst, 1.76 mM, 25.0 °C, 48.0 h): 7.8% |
| O=C1CCCCCCCC/C=C/CCCOC[C@@]23C[C@@H]2N(C(=O)CNC(=O)[C@H](CCOc2ccccc2)N1)[C@H](C(=O)OCc1ccccc1)C3 | – | ring closure, yield of all isomers ([1]; from C=CCCCCCCCCC(=O)N[C@@H](CCOc1ccccc1)C(=O)NCC(=O)N1[C@H]2C[C@@]2(COCCCC=C)C[C@H]1C(=O)OCc1ccccc1, Grubbs 1st catalyst, 14.0 mM, 28.0 °C, 16.0 h): 43.4% |
| CCOC(=O)[C@@H]1C[C@@]23COCCC/C=C/CCCCCCCCC(=O)N[C@@H](CCOc4ccccc4)C(=O)NCC(=O)N1[C@H]2C3 | – | ring closure, yield of all isomers ([1]; from C=CCCCCCCCCC(=O)N[C@@H](CCOc1ccccc1)C(=O)NCC(=O)N1[C@H]2C[C@@]2(COCCCC=C)C[C@H]1C(=O)OCC, Grubbs 1st catalyst, 15.3 mM, 28.0 °C, 16.0 h): 38.8% |
| C[C@@H](NC(=O)[C@@H]1C[C@@H](Oc2ccc(F)cc2)CN1C(=O)CNC(=O)CCCOc1ccccc1)c1cc(C(=N)N)cs1 [Compound 119, (2S,4R)-N-((R)-1-(4-carbamimidoylthiophen-2-yl)ethyl)-4-(4-fluorophenoxy)-1-((4-phenoxybutanoyl)glycyl)pyrrolidine-2-carboxamide] | < 100 nM | – |
| CS(=O)(=O)[C@@H]1C[C@@H](C(=O)NCc2cc(C(=N)N)cs2)N(C(=O)CNC(=O)c2ccc(Oc3ccccc3)cc2)C1 [Compound 46, (2S,4R)-N-((4-carbamimidoylthiophen-2-yl)methyl)-4-(methylsulfonyl)-1-((4-phenoxybenzoyl)glycyl)pyrrolidine-2-carboxamide] | < 100 nM | – |

Further lines, with some results ahead:

| IC50 [2] | Structure (SMILES) | also measured |
| --- | --- | --- |
| < 100 nM | N=C(N)c1csc(CNC(=O)[C@@H]2C[C@@H](c3ccccc3)CN2C(=O)CNC(=O)CCCOc2ccccc2)c1 [Compound 156, (2S,4S)-N-((4-carbamimidoylthiophen-2-yl)methyl)-1-((4-phenoxybutanoyl)glycyl)-4-phenylpyrrolidine-2-carboxamide] | – |
| < 100 nM | N=C(N)c1csc(CNC(=O)[C@@H]2CC3(CN2C(=O)CNC(=O)CCCOc2ccccc2)OCCO3)c1 [Compound 28, (S)-N-((4-carbamimidoylthiophen-2-yl)methyl)-7-((4-phenoxybutanoyl)glycyl)-1,4-dioxa-7-azaspiro[4.4]nonane-8-carboxamide] | – |
